Measurements from PubChem BioAssay (NCI).
Values joined by “and” are separate entries in the source; they are usually repeats but may differ in a detail not shown here. Equal entries are not always repeated.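 Protocol summary: plate cells (96-well), add compound at 5 concentrations, incubate 48 h, interpolate endpoints linearly. Abbreviation: GI50, concentration required for 50% inhibition of growth. At the TGI there is no net growth.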

Legend:
Assay in all cases: NCI tumour cell line growth inhibition, 48 h
A498 renal = tested on: A498 renal
ACHN renal = tested on: ACHN renal
BT-549 breast = tested on: BT-549 breast
HCC-2998 colon = tested on: HCC-2998 colon
K-562 leukemia = tested on: K-562 leukemia
MCF7 breast = tested on: MCF7 breast
MDA-MB-435 = tested on: MDA-MB-435
SF-268 CNS = tested on: SF-268 CNS
SR leukemia = tested on: SR leukemia
SW-620 colon = tested on: SW-620 colon

Row | SMILES | TGI (A498 renal) | TGI (ACHN renal) | TGI (BT-549 breast) | TGI (HCC-2998 colon) | TGI (K-562 leukemia) | TGI (MCF7 breast) | TGI (MDA-MB-435) | TGI (SF-268 CNS) | TGI (SR leukemia) | TGI (SW-620 colon) | GI50 (A498 renal) | GI50 (ACHN renal) | GI50 (HCC-2998 colon) | GI50 (K-562 leukemia) | GI50 (MCF7 breast) | GI50 (MDA-MB-435) | GI50 (SF-268 CNS) | GI50 (SR leukemia) | GI50 (SW-620 colon) | GI50 (BT-549 breast)
1 | COc1cc2c3c(cc(Cl)nc3c1OC)C(=O)C(=O)N2 | 30.2 µM | 27.9 µM | 29.8 µM | 33.6 µM | > 100 µM | 4.58 µM | 3.37 µM | 31.6 µM | > 29.6 µM | > 55.5 µM | – | – | – | – | – | – | – | – | – | –
2 | NCCCCNCCCNC(=O)CNC(=O)CC(O)C(N)CCCC(NC(=O)C(CN)NC(=O)C(O)CNC(=O)CC(N)c1ccc(O)cc1)C(=O)O (configuration not stated) | > 10 µM | > 10 µM | > 10 µM | > 10 µM | > 10 µM | > 10 µM | > 10 µM | > 10 µM | > 10 µM | – | – | – | – | – | – | – | – | – | – | –
3 | CNC(=S)NNc1ncnc2c1c(-c1ccc(Cl)cc1)cn2-c1ccc(C)cc1 | 49.6 µM | 22.8 µM | 29.2 µM | – | > 100 µM | – | 23.6 µM | 26.8 µM | > 100 µM | 21.7 µM | – | – | – | – | – | – | – | – | – | –
4 | N#Cc1nc(CCCN2C(=O)c3ccccc3C2=O)oc1N | – | > 100 µM | > 100 µM | > 100 µM | > 100 µM | > 100 µM | > 100 µM | > 100 µM | > 100 µM | > 100 µM | – | – | – | – | – | – | – | – | – | –
5 | CCN(CCCCCCCCCCN1CC(=O)N(CCCCCCCCCCN(CC)Cc2ccccc2OC)CC1=O)Cc1ccccc1OC | 2.94 µM | 6.82 µM | – | 2.9 µM | 12 µM | 2.81 µM | 2.96 µM | 2.96 µM | 2.37 µM | 3.95 µM | 1.09 µM | 2.36 µM | 1.46 µM | 0.388 µM | 1.2 µM | 1.31 µM | 1.49 µM | 0.355 µM | 1.75 µM | –
6 | Cc1nnc2n1-c1ccccc1N(Cc1ccccc1)CC2 | > 100 µM | > 100 µM | 76.2 µM | > 100 µM | > 100 µM | > 100 µM | > 100 µM | > 100 µM | > 100 µM | > 100 µM | – | – | – | – | – | – | – | – | – | –
7 | COc1ccc(C2Oc3c(OC)cc(CCCO)cc3C2CO)cc1OC (configuration not stated) | 88 µM and > 100 µM | > 100 µM | > 100 µM | > 100 µM | > 100 µM | > 100 µM | > 100 µM | > 100 µM | 55.5 µM and > 100 µM | > 100 µM | 26.1 µM and 73.4 µM | – | – | – | – | – | – | 13.4 µM and > 100 µM | – | –
8 | CCN1CCN(Cc2ccc(NC(=O)Nc3ccc(-n4ccc5c(NC(=O)c6ccccc6)nccc54)cc3)cc2C(F)(F)F)CC1 | 19.1 µM | 2.11 µM | 2.77 µM | 2.54 µM | 1.52 µM | 2.08 µM | – | – | > 100 µM | 1.7 µM | 5.17 µM | 0.907 µM | 1.23 µM | 0.0653 µM | 0.756 µM | – | – | 0.159 µM | 0.513 µM | 1.43 µM
9 | CCCCCCc1cc2cc(-c3csc(-c4ccc(OC)cc4)n3)c(=O)oc2cc1O | – | 25.1 µM | 7.38 µM | 31.5 µM | > 100 µM | 53.2 µM | 18.4 µM | 14.9 µM | > 100 µM | 34.3 µM | – | – | – | – | – | – | – | – | – | –
10 | Cc1cccc(NS(=O)(=O)c2ccc(N=Nc3c(O)c(C(=O)O)cc4ccccc34)cc2)n1 | – | > 100 µM | > 100 µM | > 100 µM | > 100 µM | > 100 µM | > 100 µM | > 100 µM | > 100 µM | > 100 µM | – | – | – | – | – | – | – | – | – | –
11 | C=C1C[C@@H]2CC[C@@]34C[C@H]5O[C@H]6[C@@H](O3)[C@H]3O[C@H](CC[C@@H]3O[C@H]6[C@H]5O4)CC(=O)C[C@@H]3[C@@H](OC)[C@@H](C[C@H](O)CN)O[C@H]3C[C@H]3O[C@@H](CC[C@@H]1O2)C[C@@H](C)C3=C | 0.245 µM | > 1 µM | > 1 µM | 0.096 µM | > 1 µM | > 1 µM | 0.000274 µM | > 1 µM | – | > 1 µM | – | – | – | – | – | – | – | – | – | –
12 | CCCCN1C(=O)CC2[C@@H]3CCc4cc(OC)ccc4C3CC[C@]2(C)C1=O (some centres not stated) | > 10 µM | > 10 µM | > 10 µM | > 10 µM | > 10 µM | > 10 µM | > 10 µM | > 10 µM | > 10 µM | > 10 µM | – | – | – | – | – | – | – | – | – | –
13 | COc1ccc(OC/C(N=Cc2ccncc2)=N/NC(=O)c2ccncc2)cc1 | > 100 µM | > 100 µM | > 100 µM | > 100 µM | > 100 µM | > 100 µM | 62.4 µM | > 100 µM | – | > 100 µM | – | – | – | – | – | – | – | – | – | –
14 | Cc1cc(OCc2nnc3sc(NC(=O)c4ccccc4)nn23)ccc1Cl | > 100 µM | 42.9 µM | > 100 µM | 90.2 µM | > 100 µM | > 100 µM | 50.2 µM | > 100 µM | – | > 100 µM | – | – | – | – | – | – | – | – | – | –
15 | Oc1c(OCc2nnc(CCCCCCCCc3nnc(COc4ccc5ccccc5c4O)o3)o2)ccc2ccccc12 | > 100 µM | > 100 µM | > 100 µM | > 100 µM | > 100 µM | > 100 µM | > 100 µM | > 100 µM | – | > 100 µM | – | – | – | – | – | – | – | – | – | –
16 | c1c(N2CCOCC2)ssc1=[N+]1CCOCC1 | > 100 µM | > 100 µM | – | > 100 µM | > 100 µM | – | – | > 100 µM | > 100 µM | > 100 µM | – | – | – | – | – | – | – | – | – | –
17 | O=P(OCc1ccccc1)(OCc1ccccc1)C(O)/C=C/c1ccccc1 (configuration not stated) | 35.2 µM | 95.9 µM | 71.2 µM | – | > 100 µM | > 100 µM | 35.1 µM | 42.8 µM | 50.7 µM | 68.3 µM | – | – | – | – | – | – | – | – | – | –
18 | N#C/C(=C\c1cccc(Br)c1)c1nc2ccccc2c(=O)[nH]1 | – | > 100 µM | – | > 100 µM | > 100 µM | > 100 µM | > 100 µM | > 100 µM | > 100 µM | > 100 µM | – | – | – | – | – | – | – | – | – | –
19 | CN(C)CCCNc1cc(O)c2c(c1O)C(=O)c1ccccc1C2=O | 37 µM | 27.5 µM | 34.2 µM | – | 21.6 µM | 35.9 µM | 29.2 µM | 36.4 µM | 15.9 µM | 21.7 µM | – | – | – | – | – | – | – | – | – | –
20 | CC1(C)N=C(N)N=C(N)N1c1cccc(OCc2cccc(N)c2)c1 | > 100 µM | > 100 µM | > 100 µM | – | > 100 µM | > 100 µM | > 100 µM | > 100 µM | – | > 100 µM | – | – | – | – | – | – | – | – | – | –
